{"source": "patent US6914045B2", "about": "“Glycopeptide antibiotics” (Wyeth Holdings Corporation, priority 2001, dated 2005)", "assay_in_all_cases": "in vitro antibacterial evaluation, MIC by broth dilution", "format_in_all_cases": "cell-based", "key": {"Enterococcus sp.": {"test_system": "Enterococcus sp.", "conditions": "broth dilution, 18 hours at 35° C.", "in_short": "(§1)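 Inoculum 5×10^5 CFU/mL; concentrations 64 to 0.06 μg/mL; MIC defined as lowest inhibitory level. Conducted by broth dilution under NCCLS guidelines.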"}, "Escherichia coli": {"test_system": "Escherichia coli", "conditions": "18 hours at 35° C.", "in_short": "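MIC = lowest antibiotic concentration preventing visible growth; inoculum 5×10^5 CFU/mL; drug range 64-0.06 μg/mL; Muller-Hinton II […]; NCCLS M7-A2 guidance.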"}, "Staphylococcus sp.": {"test_system": "Staphylococcus sp.", "conditions": "broth dilution, 18 hours at 35° C.", "in_short": "as §1"}, "Streptococcus sp.": {"test_system": "Streptococcus sp.", "conditions": "broth dilution, 18 hours at 35° C.", "in_short": "as §1"}}}
{"smiles": "CCC(C)C(=O)OC1C(CO)OC(OC2C(CO)OC(Oc3ccc(CC4NC(=O)C(C(C)c5ccccc5)NC(=O)CNC(=O)C(CO)NC(=O)C(C(O)C5CNC(=N)N5C5OC(CO)C(O)C(O)C5O)NC(=O)C(C(O)C5CNC(=N)N5)NC4=O)cc3)C(O)C2O)C(O)C1O", "note": "(stereo not drawn) [Example 278c, Cyclo[glycyl-β-methylphenylalanyl-O-[4-O-[4-O-(2-methylbutanoyl)hexopyranosyl]hexopyranosyl]tyrosyl-3-(2-iminoimidazolidin-4-yl)seryl-3-(3-hexopyranosyl-2-iminoimidazolidin-4-yl)serylseryl]]", "values": [{"measurement": "MIC Enterococcus avium (GC 4558)", "setting": "Enterococcus sp.; Enterococcus avium (GC 4558)", "value": 32, "unit": "µg/mL"}, {"measurement": "MIC Enterococcus faecalis (ATCC 29212)", "setting": "Enterococcus sp.; Enterococcus faecalis (ATCC 29212)", "value": 32, "unit": "µg/mL"}, {"measurement": "MIC Enterococcus faecalis (GC 4553)", "setting": "Enterococcus sp.; Enterococcus faecalis (GC 4553)", "value": 32, "unit": "µg/mL"}, {"measurement": "MIC Enterococcus faecalis (GC 4554)", "setting": "Enterococcus sp.; Enterococcus faecalis (GC 4554)", "value": 32, "unit": "µg/mL"}, {"measurement": "MIC Enterococcus faecalis (GC 6189)", "setting": "Enterococcus sp.; Enterococcus faecalis (GC 6189)", "value": 32, "unit": "µg/mL"}, {"measurement": "MIC Enterococcus faecium (GC 2243)", "setting": "Enterococcus sp.; Enterococcus faecium (GC 2243)", "value": 32, "unit": "µg/mL"}, {"measurement": "MIC Enterococcus faecium (GC 4556)", "setting": "Enterococcus sp.; Enterococcus faecium (GC 4556)", "value": 32, "unit": "µg/mL"}, {"measurement": "MIC Enterococcus faecium (GC 4557)", "setting": "Enterococcus sp.; Enterococcus faecium (GC 4557)", "value": 8, "unit": "µg/mL"}, {"measurement": "MIC Enterococcus faecalis (ATCC 29212)", "setting": "Enterococcus sp.; strain ATCC 29212", "value": 32, "unit": "µg/mL"}, {"measurement": "MIC Enterococcus faecalis (GC 2242)", "setting": "Enterococcus sp.; strain GC 2242", "value": 16, "unit": "µg/mL"}, {"measurement": "MIC Enterococcus faecium (GC 2243)", "setting": "Enterococcus sp.; strain GC 2243", "value": 32, "unit": "µg/mL"}, {"measurement": "MIC Enterococcus faecalis (GC 2691)", "setting": "Enterococcus sp.; strain GC 2691", "value": 32, "unit": "µg/mL"}, {"measurement": "MIC Enterococcus faecalis (GC 3059)", "setting": "Enterococcus sp.; strain GC 3059", "value": 32, "unit": "µg/mL"}, {"measurement": "MIC Enterococcus faecalis (GC 4552)", "setting": "Enterococcus sp.; strain GC 4552", "value": 32, "unit": "µg/mL"}, {"measurement": "MIC Enterococcus faecalis (GC 4553)", "setting": "Enterococcus sp.; strain GC 4553", "value": 32, "unit": "µg/mL"}, {"measurement": "MIC Enterococcus faecalis (GC 4554)", "setting": "Enterococcus sp.; strain GC 4554", "value": 32, "unit": "µg/mL"}, {"measurement": "MIC Enterococcus faecium (GC 4556)", "setting": "Enterococcus sp.; strain GC 4556", "value": 32, "unit": "µg/mL"}, {"measurement": "MIC Enterococcus faecium (GC 4557)", "setting": "Enterococcus sp.; strain GC 4557", "value": 8, "unit": "µg/mL"}, {"measurement": "MIC Enterococcus avium (GC 4558)", "setting": "Enterococcus sp.; strain GC 4558", "value": 32, "unit": "µg/mL"}, {"measurement": "MIC Enterococcus faecalis (GC 6189)", "setting": "Enterococcus sp.; strain GC 6189", "value": 32, "unit": "µg/mL"}, {"measurement": "MIC Escherichia coli (ATCC 25922)", "setting": "Escherichia coli; Escherichia coli (ATCC 25922)", "value": ">64", "unit": "µg/mL"}, {"measurement": "MIC Escherichia coli (GC 4559)", "setting": "Escherichia coli; Escherichia coli (GC 4559)", "value": ">64", "unit": "µg/mL"}, {"measurement": "MIC Escherichia coli (GC 4560)", "setting": "Escherichia coli; Escherichia coli (GC 4560)", "value": 2, "unit": "µg/mL"}, {"measurement": "MIC Coagulase Negative Staphylococcus (GC 4547)", "setting": "Staphylococcus sp.", "value": 4, "unit": "µg/mL"}, {"measurement": "MIC Coagulase Negative Staphylococcus (GC 4548)", "setting": "Staphylococcus sp.", "value": 2, "unit": "µg/mL"}, {"measurement": "MIC Coagulase Negative Staphylococcus (GC 4549)", "setting": "Staphylococcus sp.", "value": 2, "unit": "µg/mL"}, {"measurement": "MIC Coagulase Negative Staphylococcus (GC 4551)", "setting": "Staphylococcus sp.", "value": 8, "unit": "µg/mL"}, {"measurement": "MIC Coagulase Negative Staphylococcus (GC 6257)", "setting": "Staphylococcus sp.", "value": 2, "unit": "µg/mL"}, {"measurement": "MIC Staphylococcus aureus (ATCC 29213)", "setting": "Staphylococcus sp.", "value": 4, "unit": "µg/mL"}, {"measurement": "MIC Staphylococcus aureus (GC 1131)", "setting": "Staphylococcus sp.", "value": 8, "unit": "µg/mL"}, {"measurement": "MIC Staphylococcus aureus (GC 3051)", "setting": "Staphylococcus sp.", "value": 2, "unit": "µg/mL"}, {"measurement": "MIC Staphylococcus aureus (GC 3053)", "setting": "Staphylococcus sp.", "value": 8, "unit": "µg/mL"}, {"measurement": "MIC Staphylococcus aureus (GC 4541)", "setting": "Staphylococcus sp.", "value": 4, "unit": "µg/mL"}, {"measurement": "MIC Staphylococcus aureus (GC 4542)", "setting": "Staphylococcus sp.", "value": 4, "unit": "µg/mL"}, {"measurement": "MIC Staphylococcus aureus (GC 4544)", "setting": "Staphylococcus sp.", "value": 4, "unit": "µg/mL"}, {"measurement": "MIC Staphylococcus aureus (GC 4545)", "setting": "Staphylococcus sp.", "value": 4, "unit": "µg/mL"}, {"measurement": "MIC Staphylococcus aureus-SMITH (GC 4543)", "setting": "Staphylococcus sp.", "value": 4, "unit": "µg/mL"}, {"measurement": "MIC Staphylococcus haemolyticus (GC 4546)", "setting": "Staphylococcus sp.", "value": 2, "unit": "µg/mL"}, {"measurement": "MIC Staphylococcus aureus (ATCC 29213)", "setting": "Staphylococcus sp.; strain ATCC 29213", "value": 4, "unit": "µg/mL"}, {"measurement": "MIC Staphylococcus aureus (GC 1131)", "setting": "Staphylococcus sp.; strain GC 1131", "value": 8, "unit": "µg/mL"}, {"measurement": "MIC Staphylococcus aureus (GC 3051)", "setting": "Staphylococcus sp.; strain GC 3051", "value": 2, "unit": "µg/mL"}, {"measurement": "MIC Staphylococcus aureus (GC 3053)", "setting": "Staphylococcus sp.; strain GC 3053", "value": 8, "unit": "µg/mL"}, {"measurement": "MIC Staphylococcus aureus (GC 4541)", "setting": "Staphylococcus sp.; strain GC 4541", "value": 4, "unit": "µg/mL"}, {"measurement": "MIC Staphylococcus aureus (GC 4542)", "setting": "Staphylococcus sp.; strain GC 4542", "value": 4, "unit": "µg/mL"}, {"measurement": "MIC Staphylococcus aureus (GC 4544)", "setting": "Staphylococcus sp.; strain GC 4544", "value": 4, "unit": "µg/mL"}, {"measurement": "MIC Staphylococcus aureus (GC 4545)", "setting": "Staphylococcus sp.; strain GC 4545", "value": 4, "unit": "µg/mL"}, {"measurement": "MIC Staphylococcus haemolyticus (GC 4546)", "setting": "Staphylococcus sp.; strain GC 4546", "value": 2, "unit": "µg/mL"}, {"measurement": "MIC Coagulase Negative Staphylococcus (GC 4547)", "setting": "Staphylococcus sp.; strain GC 4547", "value": 4, "unit": "µg/mL"}, {"measurement": "MIC Coagulase Negative Staphylococcus (GC 4548)", "setting": "Staphylococcus sp.; strain GC 4548", "value": 2, "unit": "µg/mL"}, {"measurement": "MIC Coagulase Negative Staphylococcus (GC 4549)", "setting": "Staphylococcus sp.; strain GC 4549", "value": 2, "unit": "µg/mL"}, {"measurement": "MIC Coagulase Negative Staphylococcus (GC 4551)", "setting": "Staphylococcus sp.; strain GC 4551", "value": 8, "unit": "µg/mL"}, {"measurement": "MIC Coagulase Negative Staphylococcus (GC 6257)", "setting": "Staphylococcus sp.; strain GC 6257", "value": 2, "unit": "µg/mL"}, {"measurement": "MIC Staphylococcus aureus-SMITH (GC 4543)", "setting": "Staphylococcus sp.; strain SMITH GC 4543", "value": 4, "unit": "µg/mL"}, {"measurement": "MIC Streptococcus pneumoniae (ATCC 6301)", "setting": "Streptococcus sp.; strain ATCC 6301", "value": 1, "unit": "µg/mL"}, {"measurement": "MIC Streptococcus pneumoniae (GC 1894)", "setting": "Streptococcus sp.; strain GC 1894", "value": 0.5, "unit": "µg/mL"}, {"measurement": "MIC Streptococcus pyogenes (GC 4563)", "setting": "Streptococcus sp.; strain GC 4563", "value": 1, "unit": "µg/mL"}, {"measurement": "MIC Streptococcus agalactiae (GC 4564)", "setting": "Streptococcus sp.; strain GC 4564", "value": 2, "unit": "µg/mL"}, {"measurement": "MIC Streptococcus pneumoniae (GC 4565)", "setting": "Streptococcus sp.; strain GC 4565", "value": 1, "unit": "µg/mL"}]}
